We go through ten compounds from US9884063B2, “Amido-substituted azole compounds” (Bayer Pharma Aktiengesellschaft, priority 2014, dated 2018).

Assay [1] has as its target T1, TNKS2 (Homo sapiens, UniProt Q9H2K2).
T1 sequence (Q9H2K2 1-1166): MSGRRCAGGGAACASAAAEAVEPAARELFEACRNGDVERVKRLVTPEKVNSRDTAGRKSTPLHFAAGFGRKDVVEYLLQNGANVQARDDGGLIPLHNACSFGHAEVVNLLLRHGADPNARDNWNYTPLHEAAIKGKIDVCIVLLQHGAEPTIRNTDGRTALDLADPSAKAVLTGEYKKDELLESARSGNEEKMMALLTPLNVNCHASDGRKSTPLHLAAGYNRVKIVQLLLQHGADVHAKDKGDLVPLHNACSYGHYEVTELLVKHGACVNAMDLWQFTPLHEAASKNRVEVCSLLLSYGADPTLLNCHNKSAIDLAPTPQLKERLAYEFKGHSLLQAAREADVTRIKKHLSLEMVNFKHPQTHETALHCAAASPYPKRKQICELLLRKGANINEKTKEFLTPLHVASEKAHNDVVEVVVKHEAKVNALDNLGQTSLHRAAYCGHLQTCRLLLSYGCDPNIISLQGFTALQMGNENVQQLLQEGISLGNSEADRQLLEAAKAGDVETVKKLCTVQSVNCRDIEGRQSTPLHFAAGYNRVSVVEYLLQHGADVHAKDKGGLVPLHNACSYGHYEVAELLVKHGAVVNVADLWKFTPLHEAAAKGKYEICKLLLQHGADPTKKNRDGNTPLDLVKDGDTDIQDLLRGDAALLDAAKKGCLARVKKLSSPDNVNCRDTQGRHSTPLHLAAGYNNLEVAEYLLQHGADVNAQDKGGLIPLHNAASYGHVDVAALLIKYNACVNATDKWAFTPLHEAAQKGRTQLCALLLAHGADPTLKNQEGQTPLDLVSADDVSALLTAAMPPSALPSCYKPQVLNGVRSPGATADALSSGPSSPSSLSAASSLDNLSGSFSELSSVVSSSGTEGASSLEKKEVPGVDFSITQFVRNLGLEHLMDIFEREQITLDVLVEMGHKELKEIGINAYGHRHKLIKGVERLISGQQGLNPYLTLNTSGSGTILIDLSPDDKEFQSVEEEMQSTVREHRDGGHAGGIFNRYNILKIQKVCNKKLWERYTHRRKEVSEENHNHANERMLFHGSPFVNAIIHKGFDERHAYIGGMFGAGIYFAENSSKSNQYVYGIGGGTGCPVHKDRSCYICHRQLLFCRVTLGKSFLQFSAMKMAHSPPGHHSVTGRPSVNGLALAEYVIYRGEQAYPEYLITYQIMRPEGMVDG
The assay is described as follows: Modified TNKS2 Assay 3 (BPS kit #80578, biotin-NAD+, 96 well). Type of assay: biochemical. To be noted: human TNKS2, BPS kit #80578, 96 well. In outline: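 Commercial kit assay measuring TNKS2-catalysed incorporation of biotin-labelled NAD+ into a protein substrate, detected by streptavidin-HRP chemiluminescence. Run per manufacturer's protocol; IC50 is the concentration halving the normalised signal.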

Assay [2] deals with HEK293 FOP control reporter cell line. The assay is described as follows: HEK293 FOP Assay (FOP control vector luciferase reporter). Type of assay: cell-based. To be noted: Homo sapiens; HEK293 FOP control reporter cell line, 16 hours incubation, compound dilution series 50 μM to 15 nM. In outline:
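Compound series 50 μM to 15 nM, 3.16-fold steps, were diluted in CAFTY buffer (pH 7.4, 2 mM Ca2+, 0.01% BSA) and tested alongside the TOP reporter line. Human Wnt-3a was added at 2500–5 ng/ml in two-fold steps. The control HEK293 line stably holds an FOP vector whose TCF elements are randomized and non-functional.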
(In a reporter assay the amount or activity of a reporter protein is the signal.)

The test system of assay [3] is wildtype Wnt signaling cascade. The experiment in a line: HEK293 TOP Assay (Super TopFlash luciferase reporter, Wnt-3a stimulated). Type of assay: cell-based. To be noted: Homo sapiens, HEK293, 16 h, HEK293 TOP reporter cell line, Wnt-3a at EC50, 16 hours incubation, compound dilution series 50 μM to 15 nM. Summed up:
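Compounds (50 μM down to 15 nM, 3.16-fold steps, in CAFTY buffer pH 7.4, 2 mM Ca2+, 0.01% BSA) tested in parallel on TOP and FOP HEK293 reporter lines to define selective wildtype Wnt inhibition. Pathway driven by recombinant human Wnt-3a applied at 2500–5 ng/ml in two-fold dilutions.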

Broadly, the IC50 is the concentration that inhibits the measured activity by half. The low end stands for inhibition by little substance, the high end for a need for much substance. In the case of `O=C(Nc1ccc(NC(=O)c2[nH]cnc2C(=O)NCCN2CCCCC2)cc1F)c1ccccc1Cl` [Example 82, N^5-{4-[(2-chlorobenzoyl)amino]-3-fluorophenyl}-N^4-[2-(piperidin-1-yl)ethyl]-1H-imidazole-4,5-dicarboxamide], the IC50 in assay [1] is under 0.5 nM; in assay [2], 44000 nM; in assay [3] it was 90 nM.
`COc1cc(NC(=O)c2[nH]cnc2C(=O)NCCN2CCCCC2)ccc1NC(=O)c1ccc(F)cc1Cl` [Example 97, N^5-{4-[(2-chloro-4-fluorobenzoyl)amino]-3-methoxyphenyl}-N^4-[2-(piperidin-1-yl)ethyl]-1H-imidazole-4,5-dicarboxamide]: the IC50 is 20 nM in assay [1], 29000 nM in assay [2] and 80 nM in assay [3].
In the case of `COc1cc(NC(=O)c2[nH]cnc2C(=O)NCCN2CCCCC2)ccc1NC(=O)c1ccccc1Cl` [Example 101, N^5-{4-[(2-chlorobenzoyl)amino]-3-methoxyphenyl}-N^4-[2-(piperidin-1-yl)ethyl]-1H-imidazole-4,5-dicarboxamide], the IC50 in assay [1] came out at 10 nM; in assay [2] it was 29000 nM; in assay [3] it was 220 nM.
Take `CC(C)[C@@H](C)NC(=O)c1[nH]cnc1C(=O)Nc1ccc(NC(=O)c2ccc(F)cc2Cl)cc1` [Example 134, N^4-{4-[(2-chloro-4-fluorobenzoyl)amino]phenyl}-N^5-[(2R)-3-methylbutan-2-yl]-1H-imidazole-4,5-dicarboxamide]: the IC50 in assay [1] was 510 nM; in assay [2], 6300 nM; in assay [3] it was 640 nM.
In the case of `CC1CCCN(CCNC(=O)c2[nH]cnc2C(=O)Nc2ccc(NC(=O)c3ccccc3Cl)cc2)C1` (stereo not drawn) [Example 210, N^4-{4-[(2-chlorobenzoyl)amino]phenyl}-N^5-[2-(3-methylpiperidin-1-yl)ethyl]-1H-imidazole-4,5-dicarboxamide], the values for the IC50 in assay [1], in assay [2] and in assay [3] were 3 nM, 24000 nM and 130 nM, respectively.
For `O=C(Nc1ccc(NC(=O)c2nc[nH]c2C(=O)NCCN2CCC(F)(F)CC2)cc1)c1ccccc1Cl` [Example 214, N^4-{4-[(2-chlorobenzoyl)amino]phenyl}-N^5-[2-(4,4-difluoropiperidin-1-yl)ethyl]-1H-imidazole-4,5-dicarboxamide], in that order: 70 nM, 22000 nM and 1250 nM.
For `O=C(Nc1ccc(NC(=O)c2nc[nH]c2C(=O)NCCN2CCC(F)(F)CC2)cc1)c1ccc(F)cc1Br` [Example 215, N^4-{4-[(2-bromo-4-fluorobenzoyl)amino]phenyl}-N^5-[2-(4,4-difluoropiperidin-1-yl)ethyl]-1H-imidazole-4,5-dicarboxamide], in that order: 120 nM, 29500 nM and 400 nM.
Regarding `O=C(Nc1ccc(NC(=O)c2ocnc2C(=O)NCCN2CCCC(F)C2)cc1)c1ccc(F)cc1Cl` (stereo not drawn) [Example 220, N^5-{4-[(2-chloro-4-fluorobenzoyl)amino]phenyl}-N^4-[2-(3-fluoropiperidin-1-yl)ethyl]-1,3-oxazole-4,5-dicarboxamide], the IC50 in assay [1] amounted to 100 nM; in assay [2], 36000 nM; in assay [3], 690 nM.
For `O=C(Nc1ccc(NC(=O)c2ocnc2C(=O)NCCN2CC[C@H](F)C2)cc1)c1ccc(F)cc1Cl` [Example 221, N^5-{4-[(2-chloro-4-fluorobenzoyl)amino]phenyl}-N^4-{2-[(3S)-3-fluoropyrrolidin-1-yl]ethyl}-1,3-oxazole-4,5-dicarboxamide], the IC50 in assay [1] came to 490 nM; in assay [2], 12000 nM; in assay [3], 820 nM.
Regarding `O=C(Nc1ccc(NC(=O)c2ocnc2C(=O)NCCN2CC[C@@H](F)C2)cc1)c1ccc(F)cc1Cl` [Example 222, N^5-{4-[(2-chloro-4-fluorobenzoyl)amino]phenyl}-N^4-{2-[(3R)-3-fluoropyrrolidin-1-yl]ethyl}-1,3-oxazole-4,5-dicarboxamide], the IC50 in assay [1] was 190 nM; in assay [2], 23000 nM; in assay [3], 670 nM.
